Measurements taken from patent US11213666B2, “Method for administering a medicament suitable for treating a migraine or cluster headache” (SORRENTO THERAPEUTICS, INC., priority 2016, dated 2022).
Read-outs that look alike come from different tables or passages of the source.

Columns and labels:
[1] = cited from earlier work
[2] = Porcine pharmacokinetic study of sumatriptan delivered by the microneedle fluid delivery apparatus (FIG. 50); format: in vivo, Yorkshire pigs; settings: 20 mg via fluid delivery apparatus (microneedles), pig, blood serum; compared with nasal, oral and Zecuity administration
Protocol: In reference to FIG. 50, shown is the time versus concentration profile of sumatriptan as administered according to the methods and devices disclosed herein. An ideal profile (identified as “Target PK Profile”) is calculated based on the therapeutic efficiency of the medicament.
Thirty five 80 kg castrated or female Yorkshire pigs were placed under anesthesia and a catheter was inserted into the right or left jugular vein. After the catheter was placed, the pigs were kept under anesthesia and placed on their backs. The ventral region was shaved and covered with a depilatory cream (Nair Sensitive®) for 8 minutes. The cream was removed and the area washed with alcohol. The fluid delivery apparatus was placed against the skin with an adhesive and the microneedles (100 total) were inserted at a post traveling velocity of 6 m/s. A 20 mg dose of sumatriptan from the fluid deliver apparatus was delivered while the pig was under anesthesia. 3 mL blood samples were withdrawn at each time point and spun down to recover the blood serum.

[3] = nasal administration, compared with the actual profile of the fluid delivery apparatus (FIG. 49 vs FIG. 50)
[4] = subcutaneous administration, compared with the other routes of administration

In the case of `CNS(=O)(=O)Cc1ccc2[nH]cc(CCN(C)C)c2c1.O=C(O)CCC(=O)O` [sumatriptan, 1-[3-[2-(dimethylamino)ethyl]-1H-indol-5-yl]-N-methylmethanesulfonamide butanedioic acid], the AUC [1, 3] is given as “significantly lower”, the Css [1, 3] is given as “significantly lower” and the Tmax ([1]; oral administration, compared with the actual profile of the fluid delivery apparatus) is given as “much slower”. The Css ([1]; subcutaneous administration, as time progresses) was “significantly lower”, the Cmax [1, 4] was “higher” and the Tmax [1, 4] was “much faster”. The AUC [2] was “significantly improved”, the Css [2] was “significantly improved” and the Tmax [2] was “significantly improved”.
